Values of other authors, collected in patent US7208498B2, “Piperidino pyrimidine dipeptidyl peptidase inhibitors for the treatment of diabetes” (Merck & Co., Inc., priority 2002, dated 2007).

Assays:
[1] = test system: hematopoiesis; details: mouse, cyclophosphamide-induced neutropenia; WO 99/56753
[2] = test system: GRF
[3] = test system: cardiac allograft; details: rats; Transplantation 63, 1495–1500 (1997)

CC(C)[C@H](N)C(=O)N1CCC[C@H]1B(O)O [Val-Boro-Pro]
hematopoiesis [1]: stimulated hematopoiesis

CC[C@H](C)[C@H](N)C(=O)N1CCC[C@H]1C(=O)N[C@H](C(=O)O)[C@@H](C)CC [diprotin A]
degradation of GRF in plasma to GRF[3-44] [2]: prevented

CC(C)N1CCC(c2ccccc2)(c2ccccc2)CC1 [Prodipine, Pro-Pro-diphenyl-phosphonate]
cardiac allograft survival [3]: double cardiac allograft survival in rats from day 7 to day 14
